Measured values: US12185723B2, “Herbicidally active 3-phenylisoxazoline-5-carboxamides of s-containing cyclopentenylcarboxylic esters” (Bayer Aktiengesellschaft, priority 2019, dated 2025)

Tests used:
Assay type in all cases: in vivo
Alopecurus myosuroides = test: Post-emergence herbicidal action against ALOMY; details: visual rating about 3 weeks after treatment
Procedure, shortened: (§1)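 Post-emergence application onto green parts at the one-leaf stage, 2 to 3 weeks after sowing in sandy loam. Spray carried 0.5% additive at a water rate of 600 l/ha. Percent activity assessed by eye at about 3 weeks, where 100% means plants died and 0% matches controls.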

Avena fatua = test: Post-emergence herbicidal action against AVEFA; details: visual rating about 3 weeks after treatment
Procedure, shortened: as §1

DIGSA = test: Post-emergence herbicidal action against DIGSA; details: visual rating about 3 weeks after treatment
Procedure, shortened: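 Greenhouse-grown plants sprayed at one-leaf stage (2–3 weeks after sowing) with WP or EC formulations as aqueous suspension/emulsion plus 0.5% additive, 600 l/ha water. Activity rated visually about 3 weeks later versus untreated controls, 100% = plants dead, 0% = like controls.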

Echinochloa crus-galli = test: Post-emergence herbicidal action against ECHCG; details: visual rating about 3 weeks after treatment
Procedure, shortened: as §1

Lolium rigidum = test: Post-emergence herbicidal action against LOLRI; details: visual rating about 3 weeks after treatment
Procedure, shortened: as §1

Setaria viridis = test: Post-emergence herbicidal action against SETVI; details: visual rating about 3 weeks after treatment
Procedure, shortened: as §1

Abutilon theophrasti = test: Post-emergence herbicidal action against ABUTH; details: visual rating about 3 weeks after treatment
Procedure, shortened: as §1

Matricaria inodora = test: Post-emergence herbicidal action against MATIN
Procedure, shortened: as §1

Stellaria media = test: Post-emergence herbicidal action against STEME
Procedure, shortened: as §1

Viola tricolor = test: Post-emergence herbicidal action against VIOTR
Description: Post-Emergence Herbicidal Action Against Harmful Plants and Crop Plant Compatibility Seeds of monocotyledonous and dicotyledonous weeds and crop plants are placed in sandy loam in plastic or wood-fibre pots, covered with soil and cultivated in a greenhouse under controlled growth conditions. 2 to 3 weeks after sowing, the test plants are treated at the one-leaf stage. The compounds of the invention, formulated in the form of wettable powders (WP) or as emulsion concentrates (EC), are then sprayed onto the green parts of the plants as aqueous suspension or emulsion with addition of 0.5% additive at a water application rate of 600 l/ha (converted). After the test plants have been kept in the greenhouse under optimum growth conditions for about 3 weeks, the activity of the preparations is rated visually in comparison to untreated controls. For example, 100% activity=the plants have died, 0% activity=like control plants. [table]

Veronica persica = test: Post-emergence herbicidal action against VERPE
Procedure, shortened: as §1

Hordeum murinum = test: Post-emergence herbicidal action against HORMU
Procedure, shortened: as §1

Amaranthus retroflexus = test: Post-emergence herbicidal action against AMARE
Procedure, shortened: as §1

Pharbitis purpurea = test: Post-emergence herbicidal action against PHBPU
Procedure, shortened: as §1

Polygonum convolvulus = test: Post-emergence herbicidal action against POLCO
Procedure, shortened: as §1

[1] = 80 g a.i./ha, visual rating about 3 weeks after treatment

| Structure (SMILES) | Herbicidal action against [%] ALOMY (Alopecurus myosuroides; 20 g a.i./ha) | Herbicidal action against [%] ALOMY (Alopecurus myosuroides; 80 g a.i./ha) | Herbicidal action against [%] AVEFA (Avena fatua; 20 g a.i./ha) | Herbicidal action against [%] AVEFA (Avena fatua; 80 g a.i./ha) | Herbicidal action against [%] DIGSA (DIGSA; 20 g a.i./ha) | Herbicidal action against [%] DIGSA (DIGSA; 80 g a.i./ha) | Herbicidal action against [%] ECHCG (Echinochloa crus-galli; 80 g a.i./ha) | Herbicidal action against [%] LOLRI (Lolium rigidum; 20 g a.i./ha) | Herbicidal action against [%] LOLRI (Lolium rigidum; 80 g a.i./ha) | Herbicidal action against [%] SETVI (Setaria viridis; 20 g a.i./ha) | Herbicidal action against [%] SETVI (Setaria viridis; 80 g a.i./ha) | Herbicidal action against [%] ABUTH (Abutilon theophrasti; 80 g a.i./ha) | Herbicidal action against [%] MATIN (Matricaria inodora; [1]) | Herbicidal action against [%] STEME (Stellaria media; 20 g a.i./ha) | Herbicidal action against [%] STEME (Stellaria media; 80 g a.i./ha) | Herbicidal action against [%] VIOTR (Viola tricolor; 20 g a.i./ha) | Herbicidal action against [%] VERPE (Veronica persica; 20 g a.i./ha) | Herbicidal action against [%] VERPE (Veronica persica; 80 g a.i./ha) | Herbicidal action against [%] HORMU (Hordeum murinum; 20 g a.i./ha) | Herbicidal action against [%] HORMU (Hordeum murinum; 80 g a.i./ha) | further results |
| --- | --- | --- | --- | --- | --- | --- | --- | --- | --- | --- | --- | --- | --- | --- | --- | --- | --- | --- | --- | --- | --- |
| CSCCOC(=O)[C@@H]1C=C[C@H](NC(=O)C2(C(F)(F)F)CC(c3cc(F)cc(Cl)c3)=NO2)C1 (stereo partly drawn) [Example I-33, 2-methylsulfanylethyl (1S,4R)-4-[[3-(3-chloro-5-fluorophenyl)-5-(trifluoromethyl)-4H-isoxazole-5-carbonyl]amino]cyclopent-2-ene-1-carboxylate] | 80% | 90% | 80% | 100% | 80% | 80% | 80% | 90% | 90% | 80% | 80% | 80% | 80% | 90% | 90% | 90% | 80% | 80% | 80% | 90% | Herbicidal action against [%] ABUTH (Abutilon theophrasti; 20 g a.i./ha): 80%; Herbicidal action against [%] MATIN (Matricaria inodora; 20 g a.i./ha): 80% |
| CSCCOC(=O)C1C=CC(NC(=O)C2(CCl)CC(c3cc(F)cc(F)c3)=NO2)C1 (stereo not drawn) [Example I-31] | 90% | 90% | 90% | 90% | 90% | 90% | 90% | 90% | 90% | 80% | 90% | 80% | 80% | 80% | 80% | 80% | 80% | 80% | 90% | 90% | Herbicidal action against [%] ECHCG (Echinochloa crus-galli; 20 g a.i./ha): 90%; Herbicidal action against [%] AMARE (Amaranthus retroflexus; 20 g a.i./ha): 80%; Herbicidal action against [%] AMARE (Amaranthus retroflexus; [1]): 80%; Herbicidal action against [%] MATIN (Matricaria inodora; 20 g a.i./ha): 80%; Herbicidal action against [%] PHBPU (Pharbitis purpurea; 80 g a.i./ha): 90%; Herbicidal action against [%] POLCO (Polygonum convolvulus; 20 g a.i./ha): 90%; Herbicidal action against [%] POLCO (Polygonum convolvulus; 80 g a.i./ha): 90%; Herbicidal action against [%] VIOTR (Viola tricolor; 80 g a.i./ha): 80% |
| CSCCOC(=O)C1C=CC(NC(=O)C2(C)CC(c3cc(F)cc(F)c3)=NO2)C1 (stereo not drawn) [Example I-06] | 100% | 100% | 100% | 100% | 90% | 90% | 90% | 100% | 100% | 80% | 90% | 80% | 80% | 90% | 90% | 90% | 80% | 90% | 90% | 90% | Herbicidal action against [%] ECHCG (Echinochloa crus-galli; 20 g a.i./ha): 90%; Herbicidal action against [%] ABUTH (Abutilon theophrasti; 20 g a.i./ha): 80%; Herbicidal action against [%] AMARE (Amaranthus retroflexus; 20 g a.i./ha): 80%; Herbicidal action against [%] AMARE (Amaranthus retroflexus; [1]): 80%; Herbicidal action against [%] PHBPU (Pharbitis purpurea; 20 g a.i./ha): 80%; Herbicidal action against [%] PHBPU (Pharbitis purpurea; 80 g a.i./ha): 80%; Herbicidal action against [%] POLCO (Polygonum convolvulus; 20 g a.i./ha): 90%; Herbicidal action against [%] POLCO (Polygonum convolvulus; 80 g a.i./ha): 90% |
